What was measured:
Test in all cases: relative viability (nuclei count vs DMSO), 5 days (fraction); higher = more cells survive
[1] = compound: O=C(O)c1ccc2c(c1)nc(Nc1cccc(Cl)c1)c1ccncc12 [Silmitasertib] + CC(=O)c1c(C)c2cnc(Nc3ccc(N4CCNCC4)cn3)nc2n(C2CCCC2)c1=O [Palbociclib] (partner 0.5 µM)
Method in brief: (§1)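 Medians of duplicate plates are given as relative viability. That measure is the nuclei count in treated wells divided by the count in vehicle wells. Counts were taken on 4× images of lung cancer cell lines in 1536-well plates, 5 days after pin-tool dosing the day after seeding with one drug alone or a fixed anchor-drug dose plus five library-drug doses (not always all listed) in √10 steps.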

[2] = compound: O=C(O)c1ccc2c(c1)nc(Nc1cccc(Cl)c1)c1ccncc12 [Silmitasertib] + CCNC(=O)c1noc(-c2cc(C(C)C)c(O)cc2O)c1-c1ccc(CN2CCOCC2)cc1 [Luminespib] (partner 0.01 µM)
Method in brief: as §1

[3] = compound: O=C(O)c1ccc2c(c1)nc(Nc1cccc(Cl)c1)c1ccncc12 [Silmitasertib] + C[C@]1(O)C[C@@H](c2nc(-c3ccc4ccc(-c5ccccc5)nc4c3)c3c(N)nccn32)C1 [Linsitinib] (partner 1 µM)
Method in brief: as §1

[4] = compound: O=C(O)c1ccc2c(c1)nc(Nc1cccc(Cl)c1)c1ccncc12 [Silmitasertib] + O=C(c1cc(Cc2n[nH]c(=O)c3ccccc23)ccc1F)N1CCN(C(=O)C2CC2)CC1 [Olaparib] (partner 8 µM)
Method in brief: as §1

[5] = compound: O=C(O)c1ccc2c(c1)nc(Nc1cccc(Cl)c1)c1ccncc12 [Silmitasertib] + NC(=O)Nc1cc(-c2cccc(F)c2)sc1C(=O)N[C@H]1CCCNC1 [AZD7762] (partner 0.2 µM)
Method in brief: as §1

Cell Line | relative viability ([1]; first compound 0.04 µM) | relative viability ([1]; first compound 0.4 µM) | relative viability ([1]; first compound 1.265 µM) | relative viability ([1]; first compound 4 µM) | relative viability ([2]; first compound 0.04 µM) | relative viability ([2]; first compound 0.4 µM) | relative viability ([2]; first compound 1.265 µM) | relative viability ([2]; first compound 4 µM) | relative viability ([3]; first compound 0.04 µM) | relative viability ([3]; first compound 0.4 µM) | relative viability ([3]; first compound 1.265 µM) | relative viability ([3]; first compound 4 µM) | relative viability ([4]; first compound 0.04 µM) | relative viability ([4]; first compound 0.4 µM) | relative viability ([4]; first compound 1.265 µM) | relative viability ([4]; first compound 4 µM) | relative viability ([5]; first compound 0.04 µM) | relative viability ([5]; first compound 0.4 µM) | relative viability ([5]; first compound 1.265 µM) | relative viability ([5]; first compound 4 µM)
NCI-H2009 | 0.234 | 0.199 | 0.193 | 0.203 | 1.06 | 1.1 | 0.971 | 0.604 | 1.27 | 1.2 | 1.16 | 0.77 | 0.747 | 0.638 | 0.756 | 0.595 | – | – | – | –
NCI-H2023 | 0.336 | 0.458 | 0.337 | 0.354 | 0.746 | 0.535 | 0.683 | 0.684 | 0.741 | 0.62 | 0.532 | 0.472 | 0.532 | 0.363 | 0.46 | 0.468 | – | – | – | –
NCI-H2170 | 0.371 | 0.284 | 0.363 | 0.344 | 0.657 | 0.593 | 0.656 | 0.707 | – | – | – | – | 0.56 | 0.299 | 0.529 | 0.574 | 0.89 | 0.554 | 0.836 | 0.968
NCI-H2228 | 1.02 | 0.313 | 0.467 | 0.701 | 0.178 | – | 0.145 | 0.135 | 0.787 | 0.548 | 0.786 | 0.628 | 0.713 | 0.208 | 0.474 | 0.668 | – | – | – | –
NCI-H2342 | 0.522 | – | 0.494 | 0.495 | 0.708 | 0.729 | 0.715 | 0.778 | – | – | – | – | 0.422 | – | 0.434 | 0.426 | 0.471 | – | 0.387 | 0.401
SK-LU-1 | 0.424 | 0.342 | 0.245 | 0.312 | 0.21 | 0.204 | 0.187 | 0.179 | 1.22 | 0.987 | 0.688 | 0.297 | 0.45 | 0.267 | 0.308 | 0.225 | – | – | – | –
SK-MES-1 | 0.359 | 0.322 | 0.253 | 0.275 | 0.821 | 0.801 | 0.397 | 0.213 | 1.18 | 1.13 | 1.11 | 1.09 | 0.777 | 0.623 | 0.289 | 0.207 | – | – | – | –
SW 900 | 0.538 | 0.624 | 0.507 | 0.492 | 0.188 | 0.167 | 0.157 | 0.178 | – | – | – | – | 0.883 | 0.701 | 0.739 | 0.568 | 0.72 | 0.578 | 0.691 | 0.338
SW 1573 | 0.415 | 0.373 | 0.309 | 0.337 | 0.243 | 0.215 | 0.179 | 0.164 | 0.805 | 0.679 | 0.855 | 0.682 | 0.552 | 0.457 | 0.428 | 0.427 | – | – | – | –
UMC-11 | 0.364 | 0.344 | 0.347 | 0.379 | 1.2 | 1.1 | 0.861 | 0.613 | 1.04 | 1.08 | 1.1 | 0.678 | 0.335 | 0.298 | 0.301 | 0.26 | – | – | – | –
